For 64 molecules, IC50 results are on record in patent publication US10150728B2, “Alkylene derivatives” (Shionogi & Co., Ltd., priority 2013, dated 2018).

The target in the test is recombinant human ACC2 (Homo sapiens (Human), UniProt O00763). The experiment in a line: Measurement of inhibitory activity on human ACC2 (MALDI-TOF MS, acetyl CoA to malonyl CoA conversion). The conditions noted are these: Tables 155-159. In kind it is biochemical. The gist of the method:
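His-tagged human ACC2 (residues 27–2458) from baculovirus-infected Sf-9 cells was preincubated 1 h in pH 7.4 HEPES-KOH buffer with MgCl2, 6-10 mM potassium citrate, glutathione and BSA. Substrate solution held 1 mM ATP, 0.8 mM acetyl CoA and 25-50 mM bicarbonate. After 1–3 h at room temperature, malonyl CoA/(malonyl+acetyl CoA) was read by negative-mode MALDI-TOF MS; citrate, bicarbonate and time varied by enzyme lot.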

The structures appear in SMILES notation.

recombinant human ACC2, sequence (O00763 27-2458): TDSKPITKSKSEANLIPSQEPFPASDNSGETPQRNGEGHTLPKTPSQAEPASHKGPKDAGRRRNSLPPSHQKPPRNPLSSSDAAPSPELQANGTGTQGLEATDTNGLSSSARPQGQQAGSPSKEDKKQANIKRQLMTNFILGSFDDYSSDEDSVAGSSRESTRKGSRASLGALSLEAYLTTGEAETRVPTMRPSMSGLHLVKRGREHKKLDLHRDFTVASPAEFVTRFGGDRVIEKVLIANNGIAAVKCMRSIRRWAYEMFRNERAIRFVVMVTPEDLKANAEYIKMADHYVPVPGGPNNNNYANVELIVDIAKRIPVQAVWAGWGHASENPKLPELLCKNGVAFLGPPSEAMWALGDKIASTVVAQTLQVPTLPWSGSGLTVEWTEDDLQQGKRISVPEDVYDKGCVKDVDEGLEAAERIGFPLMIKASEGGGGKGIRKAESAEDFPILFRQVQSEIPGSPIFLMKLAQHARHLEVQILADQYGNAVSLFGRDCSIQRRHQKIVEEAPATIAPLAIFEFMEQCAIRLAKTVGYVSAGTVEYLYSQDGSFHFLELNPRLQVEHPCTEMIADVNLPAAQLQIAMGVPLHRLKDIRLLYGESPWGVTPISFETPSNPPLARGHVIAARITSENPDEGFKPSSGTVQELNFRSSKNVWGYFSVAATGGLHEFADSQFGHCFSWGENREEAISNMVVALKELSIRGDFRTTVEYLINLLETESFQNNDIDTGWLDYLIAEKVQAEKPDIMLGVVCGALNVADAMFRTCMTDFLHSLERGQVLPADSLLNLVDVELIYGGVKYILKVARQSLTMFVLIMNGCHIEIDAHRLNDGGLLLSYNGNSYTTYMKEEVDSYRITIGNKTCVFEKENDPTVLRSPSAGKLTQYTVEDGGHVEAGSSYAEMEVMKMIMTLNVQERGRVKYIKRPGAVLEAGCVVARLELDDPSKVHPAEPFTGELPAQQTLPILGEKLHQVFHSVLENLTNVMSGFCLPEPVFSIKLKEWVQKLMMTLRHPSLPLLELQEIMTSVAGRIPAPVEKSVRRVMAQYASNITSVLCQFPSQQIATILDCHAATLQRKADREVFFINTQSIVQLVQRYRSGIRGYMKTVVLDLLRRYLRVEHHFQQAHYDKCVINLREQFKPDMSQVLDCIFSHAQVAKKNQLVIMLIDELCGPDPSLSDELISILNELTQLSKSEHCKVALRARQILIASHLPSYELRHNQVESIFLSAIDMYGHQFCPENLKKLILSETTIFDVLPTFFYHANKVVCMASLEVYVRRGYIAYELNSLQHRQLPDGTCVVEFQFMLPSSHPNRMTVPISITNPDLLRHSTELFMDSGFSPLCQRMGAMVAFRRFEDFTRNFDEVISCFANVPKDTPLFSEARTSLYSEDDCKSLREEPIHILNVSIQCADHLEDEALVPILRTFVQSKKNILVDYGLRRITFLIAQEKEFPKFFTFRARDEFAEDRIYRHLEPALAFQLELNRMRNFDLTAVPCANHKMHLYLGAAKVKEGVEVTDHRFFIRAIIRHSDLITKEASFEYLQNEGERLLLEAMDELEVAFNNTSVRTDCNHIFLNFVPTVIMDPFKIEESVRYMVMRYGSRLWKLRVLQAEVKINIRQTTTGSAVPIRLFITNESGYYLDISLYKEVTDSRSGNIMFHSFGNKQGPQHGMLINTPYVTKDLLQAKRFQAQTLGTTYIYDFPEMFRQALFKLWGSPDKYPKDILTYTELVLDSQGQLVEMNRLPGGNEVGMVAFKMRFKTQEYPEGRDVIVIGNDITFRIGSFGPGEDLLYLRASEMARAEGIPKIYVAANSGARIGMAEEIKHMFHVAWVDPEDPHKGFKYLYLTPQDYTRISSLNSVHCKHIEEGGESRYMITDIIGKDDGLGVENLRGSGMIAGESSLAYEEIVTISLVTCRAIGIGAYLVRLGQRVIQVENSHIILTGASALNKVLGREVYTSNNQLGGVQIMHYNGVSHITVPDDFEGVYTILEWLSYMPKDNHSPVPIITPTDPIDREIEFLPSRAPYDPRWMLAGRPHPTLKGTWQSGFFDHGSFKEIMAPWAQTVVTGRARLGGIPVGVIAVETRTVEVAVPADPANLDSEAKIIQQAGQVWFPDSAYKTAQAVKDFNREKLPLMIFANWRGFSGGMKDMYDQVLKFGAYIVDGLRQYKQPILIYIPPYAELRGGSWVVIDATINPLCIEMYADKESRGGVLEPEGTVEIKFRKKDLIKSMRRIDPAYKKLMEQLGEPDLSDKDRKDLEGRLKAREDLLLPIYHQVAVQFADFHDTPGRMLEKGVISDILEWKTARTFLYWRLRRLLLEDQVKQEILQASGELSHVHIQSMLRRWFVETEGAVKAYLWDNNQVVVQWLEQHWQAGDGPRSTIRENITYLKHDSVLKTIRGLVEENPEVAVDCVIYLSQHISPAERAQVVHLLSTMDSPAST

In the case of `CC(=O)N[C@@H](C)CO[C@H]1C[C@H](COc2ccc3nc(Oc4ccc(F)cn4)sc3n2)C1` [Compound I-304], the IC50 – broadly, the concentration at which inhibition is half-maximal – amounted to 242 nM.

For `CC(=O)N[C@@H](C)CO[C@H]1C[C@H](COc2ccc3nc(Oc4ccc(F)cc4)sc3n2)C1` [Compound I-305], the IC50 amounted to 22 nM.

Take `CC(=O)N[C@@H](C)CO[C@H]1C[C@H](COc2ccc3nc(OC[C@@H](C)F)sc3n2)C1` [Compound I-306]: the half-inhibitory concentration (IC50) was found to be 15 nM.

As to `CC(=O)N[C@@H](C)CO[C@H]1C[C@H](COc2ccc3nc(OC4COC4)sc3n2)C1` [Compound I-307], the IC50 was determined as 43 nM.

`CC(=O)N[C@@H](C)CO[C@H]1C[C@H](COc2ccc3nc(OCC4CC4)sc3n2)C1` [Compound I-308]: the IC50 came to 6 nM.

Take `CC(=O)N[C@@H](C)CO[C@H]1C[C@H](COc2nccc(-c3ccc(F)cc3)c2F)C1` [Compound I-309]: the half-maximal inhibitory concentration (IC50) was determined as 24 nM.

Consider `CC(=O)N[C@@H](C)CO[C@H]1C[C@H](COc2nccc(-c3ccc(F)cc3)c2Cl)C1` [Compound I-310], for which the IC50 amounted to 34 nM.

Turning to `CC(=O)N[C@@H](C)CO[C@H]1C[C@H](COc2nccc(-c3ncc(F)cn3)c2F)C1` [Compound I-311], the 50% inhibitory concentration (IC50) is 106 nM.

With `CC(=O)N[C@@H](C)CO[C@H]1C[C@H](COc2nccc(-c3ncc(OC(C)C)cn3)c2Cl)C1` [Compound I-312], the IC50 was 401 nM.

Regarding `CC(=O)N[C@@H](C)CO[C@H]1C[C@H](COc2nccc(-c3ccc(F)cc3)c2C)C1` [Compound I-313], the IC50 was determined as 72 nM.

With `CC(=O)N[C@@H](C)CO[C@H]1C[C@H](COc2nccc(OCC3CC3)c2Cl)C1` [Compound I-314], the IC50 was found to be 25 nM.

With `CC(=O)N[C@@H](C)CO[C@H]1C[C@H](COc2nccc(OCC(F)F)c2Cl)C1` [Compound I-315], the IC50 was found to be 503 nM.

Regarding `CC(=O)N[C@@H](C)CO[C@H]1C[C@H](COc2nccc(OCC3CC3(F)F)c2Cl)C1` (stereo partly shown) [Compound I-316], the IC50 is 74 nM.

Consider `CC(=O)N[C@@H](C)CO[C@H]1C[C@H](COc2nccc(C3=CCCCC3)c2Cl)C1` [Compound I-317], for which the 50% inhibitory concentration (IC50) was found to be 14 nM.

`CC(=O)N[C@@H](C)CO[C@H]1C[C@H](COc2nccc3ccccc23)C1` [Compound I-318]: the IC50 worked out at 49 nM.

Turning to `CC(=O)N[C@@H](C)CO[C@H]1C[C@H](COc2nccc(-c3ccc(F)cc3)c2C#N)C1` [Compound I-319], the IC50 came to 281 nM.

With `CC(=O)N[C@@H](C)CO[C@H]1C[C@H](COc2nccc(-c3ccc(C(F)(F)F)cc3)c2Cl)C1` [Compound I-320], the IC50 was 67 nM.

Regarding `COc1cnc(-c2ccnc(OC[C@H]3C[C@H](OC[C@H](C)NC(C)=O)C3)c2Cl)nc1` [Compound I-321], the IC50 amounted to 167 nM.

Take `CC(=O)N[C@@H](C)CO[C@H]1C[C@H](COc2nccc(-c3ncc(C(F)(F)F)cn3)c2Cl)C1` [Compound I-322]: the IC50 was 63 nM.

As for `CC(=O)N[C@@H](C)CO[C@H]1C[C@H](COc2nccc(N3CC(F)(F)C3)c2Cl)C1` [Compound I-323], the IC50 came to 345 nM.

`CC(=O)N[C@@H](C)CO[C@H]1C[C@H](COc2nccc(N3CCCCC3)c2Cl)C1` [Compound I-324]: the IC50 was determined as 51 nM.

Turning to `CC(=O)N[C@@H](C)CO[C@H]1C[C@H](COc2nccc(N3CCCC3)c2Cl)C1` [Compound I-325], the IC50 is 37 nM.

On to `CC(=O)N[C@@H](C)CO[C@H]1C[C@H](COc2nccc(OCC(F)(F)F)c2Cl)C1` [Compound I-326], for which the IC50 came to 280 nM.

For the molecule `CC(=O)N[C@@H](C)CO[C@H]1C[C@H](COc2nccc(-n3cc(C(F)(F)F)cn3)c2Cl)C1` [Compound I-327], the half-inhibitory concentration (IC50) was 80 nM.

Turning to `CC(=O)N[C@@H](C)CO[C@H]1C[C@H](COc2nccc3c2CCN3Cc2ccccc2)C1` [Compound I-328], the IC50 was 18 nM.

In the case of `CC(=O)N[C@@H](C)CO[C@H]1C[C@H](COc2nccc3c2ccn3Cc2ccccc2)C1` [Compound I-329], the IC50 was 14 nM.

As for `CC(=O)N[C@@H](C)CO[C@H]1C[C@H](COc2nccc(N3CCC(F)CC3)c2Cl)C1` [Compound I-330], the IC50 stood at 105 nM.

As to `CC(=O)N[C@@H](C)CO[C@H]1C[C@H](COc2nccc3c2OCC2CCCN32)C1` (stereo partly shown) [Compound I-331], the IC50 was 470 nM.

On to `CC(=O)N[C@@H](C)CO[C@H]1C[C@H](COc2nccc(N3C4CCC3CC4)c2Cl)C1` [Compound I-332], for which the IC50 turned out to be 56 nM.

Take `CC(=O)N[C@@H](C)CO[C@H]1C[C@H](COc2nccc(-c3csc(C)n3)c2C)C1` [Compound I-333]: the IC50 came out at 203 nM.

Take `CC(=O)N[C@@H](C)CO[C@H]1C[C@H](COc2nccc3cc(F)ccc23)C1` [Compound I-334]: the IC50 is 179 nM.

Turning to `CC(=O)N[C@@H](C)CO[C@H]1C[C@H](COc2nccc(C3=CCCC3)c2Cl)C1` [Compound I-335], the IC50 is 18 nM.

For the molecule `CC(=O)N[C@@H](C)CO[C@H]1C[C@H](COc2nccc(C3=CCCC3)c2C)C1` [Compound I-336], the IC50 worked out at 25 nM.

Regarding `CC(=O)N[C@@H](C)CO[C@H]1C[C@H](COc2nccc(N3CC4(CCC4)C3)c2Cl)C1` [Compound I-337], the IC50 is 7 nM.

For the molecule `CC(=O)N[C@@H](C)CO[C@H]1C[C@H](COc2ncnc(N3CCCC3)c2Cl)C1` [Compound I-338], the IC50 worked out at 26 nM.

Turning to `CC(=O)N[C@@H](C)CO[C@H]1C[C@H](COc2nccc(NC(=O)c3ccccc3)c2Cl)C1` [Compound I-339], the IC50 is 35 nM.

For the molecule `CC(=O)N[C@@H](C)CO[C@H]1C[C@H](COc2ncnc(NCc3cccc(Cl)c3)c2Cl)C1` [Compound I-340], the IC50 was determined as 21 nM.

As to `CC(=O)N[C@@H](C)CO[C@H]1C[C@H](COc2ncnc(OC(C)c3ccccc3)c2Cl)C1` (stereo partly shown) [Compound I-341], the IC50 worked out at 119 nM.

Take `CC(=O)N[C@@H](C)CO[C@H]1C[C@H](COc2ncnc(NCc3cccc(C(F)(F)F)c3)c2Cl)C1` [Compound I-342]: the IC50 amounted to 108 nM.

On to `CC(=O)N[C@@H](C)CO[C@H]1C[C@H](COc2ncnc(NCc3cccc(C#N)c3)c2Cl)C1` [Compound I-343], for which the IC50 was 118 nM.

Consider `CC(=O)N[C@@H](C)CO[C@H]1C[C@H](COc2ncnc(NCc3ccc(Cl)cc3)c2Cl)C1` [Compound I-344], for which the concentration for half-maximal inhibition (IC50) came out at 13 nM.

`CC(=O)N[C@@H](C)CO[C@H]1C[C@H](COc2ncnc(OCCc3ccccc3)c2Cl)C1` [Compound I-345]: the IC50 amounted to 38 nM.

For `CC(=O)N[C@@H](C)CO[C@H]1C[C@H](COc2ncnc(OCc3cccc(C#N)c3)c2Cl)C1` [Compound I-346], the IC50 was 19 nM.

Turning to `CC(=O)N[C@@H](C)CO[C@H]1C[C@H](COc2ncnc(OCc3ccc(C#N)cc3)c2Cl)C1` [Compound I-347], the IC50 came to 55 nM.

In the case of `COc1ccc(COc2ncnc(OC[C@H]3C[C@H](OC[C@H](C)NC(C)=O)C3)c2Cl)cn1` [Compound I-348], the concentration for half-maximal inhibition (IC50) was 57 nM.

On to `CC(=O)N[C@@H](C)CO[C@H]1C[C@H](COc2ncnc(OCc3ccc(C(F)(F)F)cc3)c2Cl)C1` [Compound I-349], for which the IC50 was found to be 39 nM.

As for `CC(=O)N[C@@H](C)CO[C@H]1C[C@H](COc2ncnc(OCc3cccc(C(F)(F)F)c3)c2Cl)C1` [Compound I-350], the IC50 was 49 nM.

Consider `CC(=O)N[C@@H](C)CO[C@H]1C[C@H](COc2ncnc(OCc3ccc(C(F)(F)F)nc3)c2Cl)C1` [Compound I-351], for which the 50% inhibitory concentration (IC50) is 87 nM.

As to `CC(=O)N[C@@H](C)CO[C@H]1C[C@H](COc2nccc3c2ccn3CC2CC2)C1` [Compound I-352], the concentration for half-maximal inhibition (IC50) came out at 22 nM.

Regarding `CC(=O)N[C@@H](C)CO[C@H]1C[C@H](COc2ncnc(OCc3ncc(Cl)cn3)c2Cl)C1` [Compound I-353], the IC50 amounted to 11 nM.

Regarding `CC(=O)N[C@@H](C)CO[C@H]1C[C@H](COc2ncnc(OCc3ccc(F)cn3)c2Cl)C1` [Compound I-354], the IC50 was determined as 11 nM.

For the molecule `CC(=O)N[C@@H](C)CO[C@H]1C[C@H](COc2ncnc(OCC3CC3)c2Cl)C1` [Compound I-355], the 50% inhibitory concentration (IC50) is 18 nM.

On to `CC(=O)N[C@@H](C)CO[C@H]1C[C@H](COc2ncnc(OCC3CC3(F)F)c2Cl)C1` (stereo partly shown) [Compound I-356], for which the IC50 was 66 nM.

Turning to `CC(=O)N[C@@H](C)CO[C@H]1C[C@H](COc2ncnc(OCC(C)(F)F)c2Cl)C1` [Compound I-357], the IC50 came to 103 nM.

On to `CC(=O)N[C@@H](C)CO[C@H]1C[C@H](COc2nccc(N3CCCC3)c2F)C1` [Compound I-358], for which the IC50 was determined as 19 nM.

For `CC(=O)N[C@@H](C)CO[C@H]1C[C@H](COc2ncnc3c2ccn3CC2CC2)C1` [Compound I-359], the IC50 came to 21 nM.

Take `CC(=O)N[C@@H](C)CO[C@H]1C[C@H](COc2ncnc(OCc3cc(F)ccn3)c2Cl)C1` [Compound I-360]: the 50% inhibitory concentration (IC50) was 17 nM.

For the molecule `CC(=O)N[C@@H](C)CO[C@H]1C[C@H](COc2ncnc(OCc3ccc(Cl)nn3)c2Cl)C1` [Compound I-361], the IC50 came out at 570 nM.

On to `CC(=O)N[C@@H](C)CO[C@H]1C[C@H](COc2ncnc3c2ccn3C(C)C2CC2)C1` (stereo partly shown) [Compound I-362], for which the 50% inhibitory concentration (IC50) came to 130 nM.

On to `CC(=O)N[C@@H](C)CO[C@H]1C[C@H](COc2ncnc(OCc3cc(F)ccn3)c2F)C1` [Compound I-363], for which the concentration for half-maximal inhibition (IC50) is 32 nM.

For `CC(=O)N[C@@H](C)CO[C@H]1C[C@H](COc2nccc(N3CCC(F)(F)C3)c2Cl)C1` [Compound I-364], the IC50 was 44 nM.

On to `CC(=O)N[C@@H](C)CO[C@H]1C[C@H](COc2nccc(OC3C[C@@H]4CC[C@@H]3C4)c2Cl)C1` (stereo partly shown) [Compound I-365], for which the IC50 was found to be 100 nM.

With `CC(=O)N[C@@H](C)CO[C@H]1C[C@H](COc2nccc(OC3C[C@@H]4CC[C@@H]3C4)c2Cl)C1` (stereo partly shown) [Compound I-366], the IC50 is 31 nM.

For `CC(=O)N[C@@H](C)CO[C@H]1C[C@H](COc2nccc(OC3CCC3)c2Cl)C1` [Compound I-367], the IC50 came out at 113 nM.
